BindingDB's records for doi:10.1021/jm990205m (University of Michigan, 2000)

Tests used:
[1] = Antiviral activity was tested in cells acutely infected with HIV-1 RT (reverse transcriptase)
[2] = Antiviral activity was tested in cells acutely infected with HIV-1 Reverse transcriptase

Compound	IC50 [1] [µM]	IC50 [2] [µM]
C[C@H]1OC(n2cc3c4c(ncnc42)N(C)N=C3N)[C@H](O)[C@@H]1O (stereo partly specified)	> 100	
CN1N=C(N)c2cn([C@@H]3O[C@H](CO)C[C@H]3O)c3ncnc1c23	> 100	
CN1N=C(N)c2cn([C@H]3CC[C@@H](CO)O3)c3ncnc1c23	21	
CN1N=C(N)c2cn(C3C[C@@H](O)[C@@H](CO)O3)c3ncnc1c23 (stereo partly specified) [5-(3-Amino-5-methyl-5H-1,4,5,6,8-pentaaza-acenaphthylen-1-yl)-2-hydroxymethyl-tetrahydro-furan-3-ol]	> 100	
CN1N=C(N)c2cn(C3O[C@H](CO)[C@H]4O[C@H]34)c3ncnc1c23 (stereo partly specified) [[4-(3-Amino-5-methyl-5H-1,4,5,6,8-pentaaza-acenaphthylen-1-yl)-3,6-dioxa-bicyclo[3.1.0]hex-2-yl]-methanol(2',3'-epoxyTCN)]		> 100
CN1N=C(N)c2cn(C3C=C[C@@H](CO)O3)c3ncnc1c23 (stereo partly specified) [[5-(3-Amino-5-methyl-5H-1,4,5,6,8-pentaaza-acenaphthylen-1-yl)-2,5-dihydro-furan-2-yl]-methanol]	100	
